Species on record: Rattus norvegicus
Test: Open TG-GATES - Regimen: Single
Assay type: toxicity, organism-based, Sprague-Dawley
Design: regimen Single, gender Male, age 6 weeks
Settings: in vivo, po, 0 mg/kg, route gavage, dose level Control; for APTT / Bas / Eos / Fbg / Hb / Ht / Lym / MCH / MCHC / MCV / Mono / Neu / PT / Plat / RBC / Ret: tissue Blood; for KIDNEY_L / KIDNEY_R / KIDNEY_TOTAL: tissue Kidney; for LIVER: tissue Liver; for ALP / ALT / AST / BUN / CRE / Ca / Cl / DBIL / GLC / IP / K / LDH / Na / PL / RALB / TBIL / TC / TG / TP / gamma-GTP: tissue Plasma

In the case of `COc1ccc2[nH]c([S+]([O-])Cc3ncc(C)c(OC)c3C)nc2c1` (stereo not drawn) [OMEPRAZOLE], the TERMINAL_BW (3 h) is reported as 218.5 g, the APTT (3 h) is reported as 20.5 s and the Bas (3 h) is reported as 0%. The Eos (3 h) was 1%, the Fbg (3 h) was 206.4 mg/dL and the Hb (3 h) was 13 g/dL. For the same molecule, the Ht (3 h) was 38.5%, the Lym (3 h) was 77.8% and the MCH (3 h) was 21.4 pg. The MCHC (3 h) was 33.9%, the MCV (3 h) was 63.1 fL and the Mono (3 h) was 2.4%. It also gave a Neu (3 h) of 18.6%, a PT (3 h) of 12.5 s and a Plat (3 h) of 122.7 x10_4/uL. For the same molecule, the RBC (3 h) was 610.2 x10_4/ul, the Ret (3 h) was 7.2% and the KIDNEY_L (3 h) was 0.9 g. The KIDNEY_R (3 h) was 0.9 g, the KIDNEY_TOTAL (3 h) was 1.9 g and the LIVER (3 h) was 9.9 g. It also gave an ALP (3 h) of 855.8 IU/L, an ALT (3 h) of 33.2 IU/L and an AST (3 h) of 68.4 IU/L. The BUN (3 h) was 12.6 mg/dL, the CRE (3 h) was 0.4 mg/dL and the Ca (3 h) was 10.8 mg/dL. It also gave a Cl (3 h) of 100.6 meq/L, a DBIL (3 h) of 0.064 mg/dL and a GLC (3 h) of 191.8 mg/dL. For the same molecule, the IP (3 h) was 8.3 mg/dL, the K (3 h) was 3.8 meq/L and the LDH (3 h) was 171.2 IU/L. The Na (3 h) was 140.4 meq/L, the PL (3 h) was 130.8 mg/dL and the RALB (3 h) was 3.1 g/dL. For the same molecule, the TBIL (3 h) was 0.1 mg/dL, the TC (3 h) was 69.4 mg/dL and the TG (3 h) was 59.4 mg/dL. For the same molecule, the TP (3 h) was 5.3 g/dL, the gamma-GTP (3 h) was 1 IU/L and the TERMINAL_BW (6 h) was 218.1 g. The APTT (6 h) was 19.3 s, the Bas (6 h) was 0% and the Eos (6 h) was 0.8%. For the same molecule, the Fbg (6 h) was 220.4 mg/dL, the Hb (6 h) was 13.6 g/dL and the Ht (6 h) was 39.7%. It also gave a Lym (6 h) of 72.4%, an MCH (6 h) of 21.4 pg and an MCHC (6 h) of 34.1%. For the same molecule, the MCV (6 h) was 62.7 fL, the Mono (6 h) was 3.8% and the Neu (6 h) was 22.2%. For the same molecule, the PT (6 h) was 12.6 s, the Plat (6 h) was 123.4 x10_4/uL and the RBC (6 h) was 634.2 x10_4/ul. For the same molecule, the Ret (6 h) was 7.1%, the KIDNEY_L (6 h) was 1 g and the KIDNEY_R (6 h) was 1 g. The KIDNEY_TOTAL (6 h) was 1.9 g, the LIVER (6 h) was 9.9 g and the ALP (6 h) was 923.8 IU/L. The ALT (6 h) was 32.6 IU/L, the AST (6 h) was 66 IU/L and the BUN (6 h) was 11 mg/dL. For the same molecule, the CRE (6 h) was 0.3 mg/dL, the Ca (6 h) was 10.7 mg/dL and the Cl (6 h) was 100.8 meq/L. The DBIL (6 h) was 0.07 mg/dL, the GLC (6 h) was 201 mg/dL and the IP (6 h) was 8.8 mg/dL. The K (6 h) was 3.8 meq/L, the LDH (6 h) was 181.6 IU/L and the Na (6 h) was 140 meq/L. The PL (6 h) was 141.4 mg/dL, the RALB (6 h) was 3.3 g/dL and the TBIL (6 h) was 0.1 mg/dL. The TC (6 h) was 73.4 mg/dL, the TG (6 h) was 81.2 mg/dL and the TP (6 h) was 5.4 g/dL. It also gave a gamma-GTP (6 h) of 1.8 IU/L, a TERMINAL_BW (9 h) of 218.2 g and an APTT (9 h) of 20.9 s. It also gave a Bas (9 h) of 0%, an Eos (9 h) of 1% and a Fbg (9 h) of 212.8 mg/dL. The Hb (9 h) was 13.3 g/dL, the Ht (9 h) was 38.6% and the Lym (9 h) was 78%. The MCH (9 h) was 21.5 pg, the MCHC (9 h) was 34.3% and the MCV (9 h) was 62.6 fL. For the same molecule, the Mono (9 h) was 3%, the Neu (9 h) was 17.4% and the PT (9 h) was 13.1 s. The Plat (9 h) was 119.3 x10_4/uL, the RBC (9 h) was 615.6 x10_4/ul and the Ret (9 h) was 7.4%. It also gave a KIDNEY_L (9 h) of 0.9 g, a KIDNEY_R (9 h) of 1 g and a KIDNEY_TOTAL (9 h) of 1.9 g. It also gave an LIVER (9 h) of 9.1 g, an ALP (9 h) of 764.2 IU/L and an ALT (9 h) of 28 IU/L. For the same molecule, the AST (9 h) was 59.2 IU/L, the BUN (9 h) was 11.4 mg/dL and the CRE (9 h) was 0.3 mg/dL. The Ca (9 h) was 10.7 mg/dL, the Cl (9 h) was 101 meq/L and the DBIL (9 h) was 0.06 mg/dL. For the same molecule, the GLC (9 h) was 188.4 mg/dL, the IP (9 h) was 9.4 mg/dL and the K (9 h) was 3.9 meq/L. For the same molecule, the LDH (9 h) was 175.4 IU/L, the Na (9 h) was 140.4 meq/L and the PL (9 h) was 122.2 mg/dL. It also gave an RALB (9 h) of 3.3 g/dL, a TBIL (9 h) of 0.1 mg/dL and a TC (9 h) of 66.4 mg/dL. For the same molecule, the TG (9 h) was 54.6 mg/dL, the TP (9 h) was 5.5 g/dL and the gamma-GTP (9 h) was 1.4 IU/L. The TERMINAL_BW (24 h) was 234.9 g, the APTT (24 h) was 20.7 s and the Bas (24 h) was 0%. It also gave an Eos (24 h) of 1%, a Fbg (24 h) of 229.6 mg/dL and a Hb (24 h) of 13.2 g/dL. It also gave a Ht (24 h) of 38.7%, a Lym (24 h) of 78.6% and an MCH (24 h) of 21.7 pg. It also gave an MCHC (24 h) of 34.1%, an MCV (24 h) of 63.6 fL and a Mono (24 h) of 2.6%. For the same molecule, the Neu (24 h) was 17.2%, the PT (24 h) was 12.1 s and the Plat (24 h) was 118.9 x10_4/uL. It also gave an RBC (24 h) of 608 x10_4/ul, a Ret (24 h) of 6.6% and a KIDNEY_L (24 h) of 1 g. It also gave a KIDNEY_R (24 h) of 1 g, a KIDNEY_TOTAL (24 h) of 2 g and an LIVER (24 h) of 11.8 g. The ALP (24 h) was 979.4 IU/L, the ALT (24 h) was 35.4 IU/L and the AST (24 h) was 62.2 IU/L. For the same molecule, the BUN (24 h) was 17.4 mg/dL, the CRE (24 h) was 0.4 mg/dL and the Ca (24 h) was 11.1 mg/dL. The Cl (24 h) was 101.2 meq/L, the DBIL (24 h) was 0.094 mg/dL and the GLC (24 h) was 216 mg/dL. The IP (24 h) was 7.7 mg/dL, the K (24 h) was 4.2 meq/L and the LDH (24 h) was 192 IU/L. For the same molecule, the Na (24 h) was 140.6 meq/L, the PL (24 h) was 151.6 mg/dL and the RALB (24 h) was 3.4 g/dL. The TBIL (24 h) was 0.1 mg/dL, the TC (24 h) was 79.6 mg/dL and the TG (24 h) was 109 mg/dL. The TP (24 h) was 5.5 g/dL.
